Measurements published in US20250163104A1, “MACROCYCLIC IMMUNOMODULATORS” (priority 2021, published 2025).
Where a SMILES comes first, the peptide text is derived from it. Bridges are numbered along the chain shown (N, C = ends). [ ]: non-standard residue; d: D form. The star is where a group is joined. Phg(4-Ph) = N[C@H](C(=O)O)c1ccc(-c2ccccc2)cc1; Bip = N[C@@H](Cc1ccc(-c2ccccc2)cc1)C(=O)O; Cha = N[C@@H](CC1CCCCC1)C(=O)O; Cit = NC(=O)NCCC[C@H](N)C(=O)O; Ahp(2) = CCCCC[C@H](N)C(=O)O; Carboxymethyl = O=C(O)C*; Orn = NCCC[C@H](N)C(=O)O; Dab = NCC[C@H](N)C(=O)O; Dap = NC[C@H](N)C(=O)O

Molecular target: T1, human PD-1 / PD-L1-Ig binding on Jurkat cell line over-expressing human PD-1 (Jurkat-PD-1) (Homo sapiens, UniProt Q15116)
T1 construct: expressed in transfected cells; host or cells: Jurkat
T1 sequence (Q15116 25-288): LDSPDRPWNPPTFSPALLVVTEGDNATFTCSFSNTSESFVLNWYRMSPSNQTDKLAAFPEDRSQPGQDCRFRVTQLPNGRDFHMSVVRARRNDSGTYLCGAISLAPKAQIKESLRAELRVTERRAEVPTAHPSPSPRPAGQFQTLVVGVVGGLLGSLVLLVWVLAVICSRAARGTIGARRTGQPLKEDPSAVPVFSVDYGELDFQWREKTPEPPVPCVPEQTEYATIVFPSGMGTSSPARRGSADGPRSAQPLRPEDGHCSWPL
Experiment: Jurkat-PD-1 Cell Binding High-Content Screening Assay (CBA)
Assay type: cell-based
Conditions: Jurkat-PD-1 cells, PE-labeled PD-L1-Ig 20 nM final; read-out: Jurkat HPD1_PDL1 IC50
Protocol: Example 3. Jurkat-PD-1 Cell Binding High-Content Screening Assay (CBA)
Jurkat-PD-1 Cell Binding High-Content Screening Assay (CBA). Phycoerythrin (PE) was covalently linked to the Ig epitope tag of human PD-L1-Ig and fluorescently-labeled PD-L1-Ig was used for binding studies with a Jurkat cell line over-expressing human PD-1 (Jurkat-PD-1). Briefly, 8×10^3 Jurkat-hPD-1 cells were seeded into 384 well plates in 20 μl of DMEM supplemented with 10% fetal calf serum. 100 nL of compound was added to cells followed by incubation at 37° C. for 2 h. Then, 5 μl of PE-labeled PD-L1-Ig (20 nM final), diluted in DMEM supplemented with 10% fetal calf serum. After 1 hour incubation, cells were fixed with 4% paraformaldehyde in dPBS containing 10 μg/ml Hoechst 33342 and then washed 3x in 100 μl dPBS. Data was collected and processed using a Cell Insight NXT High Content Imager and associated software.

SMILES | IC50
Cc1cccc(C[C@@H]2NC(=O)[C@H](CC(=O)O)NC(=O)[C@H](Cc3ccc(OCC(=O)O)cc3)NC(=O)[C@H](Cc3ccncc3)NC(=O)CSC[C@@H](C(=O)N[C@@H](CCN)C(N)=O)NC(=O)[C@H](CO)NC(=O)[C@H](C(C)(C)O)NC(=O)[C@H](CC3CCCCC3)NC(=O)[C@H](CCN)NC(=O)[C@@H](CC(C)C)NC(=O)C(C3CCNCC3)NC(=O)[C@H](Cc3ccc(OCC(=O)O)cc3)NC(=O)[C@H](Cc3ccc(-c4ccccc4)cc3)NC(=O)[C@H](Cc3ccc(OCC(=O)O)cc3)NC2=O)c1 (mixture of isomers) [Compound 2084] | 209 nM
CCCCC[C@@H]1NC(=O)[C@H](C(C)C)NC(=O)[C@@H](Cc2ccccc2)NC(=O)[C@H](CC(=O)O)NC(=O)[C@H](CCCNC(=N)N)NC(=O)[C@H](c2ccc(-c3ccccc3)cc2)NC(=O)[C@H](C(C)C)NC(=O)[C@H](Cc2c[nH]c3ccccc23)NC(=O)[C@H](CC(=O)O)NC(=O)[C@H](Cc2ccc(O)cc2)NC(=O)[C@H](Cc2ccccc2)NC(=O)CSC[C@@H](C(=O)NCC(N)=O)NC(=O)[C@H](CO)NC(=O)[C@H](C(C)C)NC1=O [Compound 1000] ({CH2CO}-FYDWV[Phg(4-Ph)]RD[dF]V[Ahp(2)]VSCG-NH2; thioether N-14) | 251 nM
CC(C)C[C@@H]1NC(=O)[C@H](CCN)NC(=O)[C@@H](CC(C)C)NC(=O)[C@H](C)NC(=O)[C@H](CCCNC(=N)N)NC(=O)[C@H](Cc2ccc(-c3ccccc3)cc2)NC(=O)[C@H](C(C)C)NC(=O)[C@H](Cc2c[nH]c3ccccc23)NC(=O)[C@H](CC(=O)O)NC(=O)[C@H](Cc2ccc(O)cc2)NC(=O)[C@H](CC(N)=O)NC(=O)CSC[C@@H](C(=O)N[C@@H](C)C(N)=O)NC(=O)[C@H]([C@@H](C)O)NC(=O)[C@H](C(C)C)NC1=O [Compound 1001] ({CH2CO}-NYDWV[Bip]RA[dL][Dab]LVTCA-NH2; thioether N-14) | 140 nM
COC[C@@H]1NC(=O)[C@H](Cc2c[nH]c3ccccc23)NC(=O)[C@H](CC(=O)O)NC(=O)[C@H](Cc2ccc(OCC(=O)O)cc2)NC(=O)[C@H](CN)NC(=O)CSC[C@@H](C(=O)N[C@@H](C)C(N)=O)NC(=O)[C@H]([C@@H](C)O)NC(=O)[C@H](C(C)C)NC(=O)[C@H](CC2CCCCC2)NC(=O)[C@H](CCN)NC(=O)[C@@H](CC(C)C)NC(=O)[C@H](CCCN)NC(=O)[C@H](CCCNC(N)=O)NC(=O)[C@H](Cc2ccc(-c3ccccc3)cc2)NC1=O [Compound 1002] ({CH2CO}-[Dap]Y(Carboxymethyl)DWS(Me)[Bip][Cit][Orn][dL][Dab][Cha]VTCA-NH2; thioether N-14) | 17.2 nM
CCCCC[C@@H]1NC(=O)[C@H](C(C)C)NC(=O)[C@H](Cc2ccccc2)NC(=O)[C@H](CC(=O)O)NC(=O)[C@H](CCCNC(=N)N)NC(=O)[C@H](Cc2ccc(-c3ccccc3)cc2)NC(=O)[C@H](C(C)C)NC(=O)[C@H](Cc2c[nH]c3ccccc23)NC(=O)[C@H](CC(=O)O)NC(=O)[C@H](Cc2ccc(O)cc2)NC(=O)[C@H](Cc2ccccc2)NC(=O)CSC[C@@H](C(=O)NCC(N)=O)NC(=O)[C@H](CO)NC(=O)[C@H](C(C)C)NC1=O [Compound 1003] ({CH2CO}-FYDWV[Bip]RDFV[Ahp(2)]VSCG-NH2; thioether N-14) | 614 nM
CC(C)C[C@@H]1NC(=O)[C@H](CCN)NC(=O)[C@@H](CC(C)C)NC(=O)[C@H](CCN)NC(=O)[C@H](CCCNC(=N)N)NC(=O)[C@H](Cc2ccc(-c3ccccc3)cc2)NC(=O)[C@H](C(C)C)NC(=O)[C@H](Cc2c[nH]c3ccccc23)NC(=O)[C@H](CC(=O)O)NC(=O)[C@H](Cc2ccc(O)cc2)NC(=O)[C@H](CC(N)=O)NC(=O)CSC[C@@H](C(=O)N[C@@H](C)C(N)=O)NC(=O)[C@H]([C@@H](C)O)NC(=O)[C@H](C(C)C)NC1=O [Compound 1004] ({CH2CO}-NYDWV[Bip]R[Dab][dL][Dab]LVTCA-NH2; thioether N-14) | 53.2 nM

The remaining lines, values ahead:

IC50 | SMILES
35.8 nM | CC(C)C[C@@H]1NC(=O)[C@H](CCN)NC(=O)[C@@H](CC(C)C)NC(=O)[C@H](CCCN)NC(=O)[C@H](CCCNC(=N)N)NC(=O)[C@H](Cc2ccc(-c3ccccc3)cc2)NC(=O)[C@H](C(C)C)NC(=O)[C@H](Cc2c[nH]c3ccccc23)NC(=O)[C@H](CC(=O)O)NC(=O)[C@H](Cc2ccc(O)cc2)NC(=O)[C@H](CC(N)=O)NC(=O)CSC[C@@H](C(=O)N[C@@H](C)C(N)=O)NC(=O)[C@H]([C@@H](C)O)NC(=O)[C@H](C(C)C)NC1=O [Compound 1005] ({CH2CO}-NYDWV[Bip]R[Orn][dL][Dab]LVTCA-NH2; thioether N-14)
98.1 nM | CC(C)C[C@@H]1NC(=O)[C@H](CCCNC(=N)N)NC(=O)[C@@H](CC(C)C)NC(=O)[C@H](C)NC(=O)[C@H](CCCNC(=N)N)NC(=O)[C@H](Cc2ccc(-c3ccccc3)cc2)NC(=O)[C@H](C(C)C)NC(=O)[C@H](Cc2c[nH]c3ccccc23)NC(=O)[C@H](CC(=O)O)NC(=O)[C@H](Cc2ccc(O)cc2)NC(=O)[C@H](CC(N)=O)NC(=O)CSC[C@@H](C(=O)N[C@@H](C)C(N)=O)NC(=O)[C@H]([C@@H](C)O)NC(=O)[C@H](C(C)C)NC1=O [Compound 1006] ({CH2CO}-NYDWV[Bip]RA[dL]RLVTCA-NH2; thioether N-14)
45.3 nM | CC(C)C[C@@H]1NC(=O)[C@H](CCCNC(=N)N)NC(=O)[C@@H](CC(C)C)NC(=O)[C@H](CCCCN)NC(=O)[C@H](CCCNC(=N)N)NC(=O)[C@H](Cc2ccc(-c3ccccc3)cc2)NC(=O)[C@H](C(C)C)NC(=O)[C@H](Cc2c[nH]c3ccccc23)NC(=O)[C@H](CC(=O)O)NC(=O)[C@H](Cc2ccc(O)cc2)NC(=O)[C@H](CC(N)=O)NC(=O)CSC[C@@H](C(=O)N[C@@H](C)C(N)=O)NC(=O)[C@H]([C@@H](C)O)NC(=O)[C@H](C(C)C)NC1=O [Compound 1007] ({CH2CO}-NYDWV[Bip]RK[dL]RLVTCA-NH2; thioether N-14)
59.9 nM | CC(C)C[C@@H]1NC(=O)[C@H](CCN)NC(=O)[C@@H](CC(C)C)NC(=O)[C@H](CCCCN)NC(=O)[C@H](CCCNC(=N)N)NC(=O)[C@H](Cc2ccc(-c3ccccc3)cc2)NC(=O)[C@H](C(C)C)NC(=O)[C@H](Cc2c[nH]c3ccccc23)NC(=O)[C@H](CC(=O)O)NC(=O)[C@H](Cc2ccc(O)cc2)NC(=O)[C@H](CC(N)=O)NC(=O)CSC[C@@H](C(=O)N[C@@H](C)C(N)=O)NC(=O)[C@H]([C@@H](C)O)NC(=O)[C@H](C(C)C)NC1=O [Compound 1008] ({CH2CO}-NYDWV[Bip]RK[dL][Dab]LVTCA-NH2; thioether N-14)
52.9 nM | CC(C)C[C@@H]1NC(=O)[C@H](CCN)NC(=O)[C@@H](CC(C)C)NC(=O)[C@H](CN)NC(=O)[C@H](CCCNC(=N)N)NC(=O)[C@H](Cc2ccc(-c3ccccc3)cc2)NC(=O)[C@H](C(C)C)NC(=O)[C@H](Cc2c[nH]c3ccccc23)NC(=O)[C@H](CC(=O)O)NC(=O)[C@H](Cc2ccc(O)cc2)NC(=O)[C@H](CC(N)=O)NC(=O)CSC[C@@H](C(=O)N[C@@H](C)C(N)=O)NC(=O)[C@H]([C@@H](C)O)NC(=O)[C@H](C(C)C)NC1=O [Compound 1009] ({CH2CO}-NYDWV[Bip]R[Dap][dL][Dab]LVTCA-NH2; thioether N-14)
99.6 nM | CC(C)C[C@@H]1NC(=O)[C@H](CCCNC(=N)N)NC(=O)[C@@H](CC(C)C)NC(=O)[C@H](CN)NC(=O)[C@H](CCCNC(=N)N)NC(=O)[C@H](Cc2ccc(-c3ccccc3)cc2)NC(=O)[C@H](C(C)C)NC(=O)[C@H](Cc2c[nH]c3ccccc23)NC(=O)[C@H](CC(=O)O)NC(=O)[C@H](Cc2ccc(O)cc2)NC(=O)[C@H](CC(N)=O)NC(=O)CSC[C@@H](C(=O)N[C@@H](C)C(N)=O)NC(=O)[C@H]([C@@H](C)O)NC(=O)[C@H](C(C)C)NC1=O [Compound 1010] ({CH2CO}-NYDWV[Bip]R[Dap][dL]RLVTCA-NH2; thioether N-14)
67.1 nM | CC(C)C[C@@H]1NC(=O)[C@H](CCCNC(=N)N)NC(=O)[C@@H](CC(C)C)NC(=O)[C@H](CCN)NC(=O)[C@H](CCCNC(=N)N)NC(=O)[C@H](Cc2ccc(-c3ccccc3)cc2)NC(=O)[C@H](C(C)C)NC(=O)[C@H](Cc2c[nH]c3ccccc23)NC(=O)[C@H](CC(=O)O)NC(=O)[C@H](Cc2ccc(O)cc2)NC(=O)[C@H](CC(N)=O)NC(=O)CSC[C@@H](C(=O)N[C@@H](C)C(N)=O)NC(=O)[C@H]([C@@H](C)O)NC(=O)[C@H](C(C)C)NC1=O [Compound 1011] ({CH2CO}-NYDWV[Bip]R[Dab][dL]RLVTCA-NH2; thioether N-14)
43.6 nM | CC(C)C[C@@H]1NC(=O)[C@H](CCCNC(=N)N)NC(=O)[C@@H](CC(C)C)NC(=O)[C@H](CCCN)NC(=O)[C@H](CCCNC(=N)N)NC(=O)[C@H](Cc2ccc(-c3ccccc3)cc2)NC(=O)[C@H](C(C)C)NC(=O)[C@H](Cc2c[nH]c3ccccc23)NC(=O)[C@H](CC(=O)O)NC(=O)[C@H](Cc2ccc(O)cc2)NC(=O)[C@H](CC(N)=O)NC(=O)CSC[C@@H](C(=O)N[C@@H](C)C(N)=O)NC(=O)[C@H]([C@@H](C)O)NC(=O)[C@H](C(C)C)NC1=O [Compound 1012] ({CH2CO}-NYDWV[Bip]R[Orn][dL]RLVTCA-NH2; thioether N-14)
129 nM | CC(C)C[C@@H]1NC(=O)[C@H](CCCNC(=N)N)NC(=O)[C@@H](CC(C)C)NC(=O)[C@@H](CCCCN)NC(=O)[C@H](CCCNC(=N)N)NC(=O)[C@H](Cc2ccc(-c3ccccc3)cc2)NC(=O)[C@H](C(C)C)NC(=O)[C@H](Cc2c[nH]c3ccccc23)NC(=O)[C@H](CC(=O)O)NC(=O)[C@H](Cc2ccc(O)cc2)NC(=O)[C@H](CC(N)=O)NC(=O)CSC[C@@H](C(=O)N[C@@H](C)C(N)=O)NC(=O)[C@H]([C@@H](C)O)NC(=O)[C@H](C(C)C)NC1=O [Compound 1013] ({CH2CO}-NYDWV[Bip]R[dK][dL]RLVTCA-NH2; thioether N-14)
